In publication PMC4043709 (Drug Design, Development and Therapy, 2014):

Target: T1, ABCG2 (Homo sapiens, UniProt Q9UNQ0)
T1 sequence (Q9UNQ0 1-655): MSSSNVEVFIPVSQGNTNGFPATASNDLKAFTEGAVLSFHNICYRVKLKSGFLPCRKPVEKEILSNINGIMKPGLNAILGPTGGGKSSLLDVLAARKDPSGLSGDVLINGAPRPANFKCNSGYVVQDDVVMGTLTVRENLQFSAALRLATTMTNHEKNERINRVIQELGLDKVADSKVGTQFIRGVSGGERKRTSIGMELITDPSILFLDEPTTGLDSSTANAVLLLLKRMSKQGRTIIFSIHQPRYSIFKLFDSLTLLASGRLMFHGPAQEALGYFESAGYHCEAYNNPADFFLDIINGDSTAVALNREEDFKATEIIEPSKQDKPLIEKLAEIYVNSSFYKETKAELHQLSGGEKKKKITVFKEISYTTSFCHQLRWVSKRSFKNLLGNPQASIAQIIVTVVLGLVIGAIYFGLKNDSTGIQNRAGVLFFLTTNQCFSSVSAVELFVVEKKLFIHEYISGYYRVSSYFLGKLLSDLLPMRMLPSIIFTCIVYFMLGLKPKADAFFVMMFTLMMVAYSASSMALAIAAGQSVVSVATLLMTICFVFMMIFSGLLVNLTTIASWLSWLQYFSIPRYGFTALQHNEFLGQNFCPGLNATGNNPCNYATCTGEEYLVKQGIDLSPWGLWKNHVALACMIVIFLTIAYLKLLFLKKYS
Test: ABCG2-mediated mitoxantrone efflux
Assay type: cell-based
Conditions: 6 versus 3; 10 versus 5

| Compound | fold decrease of inhibition caused by hydroxyl group at 4′ position |
| --- | --- |
| COc1cc(C(=O)/C=C/c2ccc3nccnc3c2)cc(OC)c1O [Compound 10, (2E)-1-(3′,5′-dimethoxy,4′-hydroxy-phenyl)-3-(quinoxalin-6-yl)-2-propen-1-one] | 5 fold |
| COc1cc(C(=O)/C=C/c2ccc3nccnc3c2)ccc1O [Compound 6, (2E)-1-(3′-methoxy,4′-hydroxy-phenyl)-3-(quinoxalin-6-yl)-2-propen-1-one] | 8 fold |
